# According to US20240166652A1, “MODULATORS OF THE INTEGRATED STRESS PATHWAY” (Calico Life Sciences LLC, priority 2017, published 2024):
# Test system: ATF4 luciferase reporter in HEK293T cells
# Experiment: ATF4-Luc assay (ATF4 luciferase reporter, tunicamycin-treated HEK293T cells)
# Assay type: cell-based, human
# Settings: HEK293T cells carrying the ATF4 luciferase reporter, 1 μg/mL tunicamycin, 7 hours
row,SMILES,EC50
1,"O=C(COc1ccc(Cl)cc1)NC12CCC(NC(=O)COc3ccc(F)cc3)(CC1)[C@@H](O)C2 [Compound 708, 2-(4-chlorophenoxy)-N-{(3S)-4-[2-(4-fluorophenoxy)acetamido]-3-hydroxybicyclo[2.2.2]octan-1-yl}acetamide]",< 10 nM

# Same assay, conditions: Homo sapiens, HEK-293T; HEK293T cells carrying the ATF4 luciferase reporter, 1 μg/mL tunicamycin, 7 hours
row,SMILES,EC50
1,"O=C(COc1ccc(Cl)c(F)c1)NC12CC(N(CCO)CCCOc3ccc(Cl)c(F)c3)(C1)C2 [Compound 692, 2-(4-chloro-3-fluorophenoxy)-N-(3-{[3-(4-chloro-3-fluorophenoxy)propyl](2-hydroxyethyl)amino}bicyclo[1.1.1]pentan-1-yl)acetamide]",250 to 500 nM
2,"CN1Cc2ccc(OCC(=O)NC34CCC(NC(=O)COc5ccc(Cl)c(F)c5)(CC3)[C@@H](O)C4)cc2C1=O [Compound 695, 2-(4-chloro-3-fluorophenoxy)-N-[(2S)-2-hydroxy-4-{2-[(2-methyl-3-oxo-2,3-dihydro-1H-isoindol-5-yl)oxy]acetamido}bicyclo[2.2.2]octan-1-yl]acetamide]",500 to 2000 nM
3,"CN(CCCOc1ccc(Cl)cc1)C12CCC(NC(=O)COc3ccc(Cl)c(F)c3)(CC1)[C@@H](O)C2 [Compound 696, 2-(4-chloro-3-fluorophenoxy)-N-[(2S)-4-{[3-(4-chlorophenoxy)propyl](methyl)amino}-2-hydroxybicyclo[2.2.2]octan-1-yl]acetamide]",10 to 50 nM
4,"CN(CCC(=O)O)C1CC2(NC(=O)COc3ccc(Cl)c(F)c3)CCC1(NC(=O)COc1ccc(Cl)c(F)c1)CC2 (centres unmarked) [Compound 698, 3-[{1,4-bis[2-(4-chloro-3-fluorophenoxy)acetamido]bicyclo[2.2.2]octan-2-yl}(methyl)amino]propanoic Acid]",250 to 500 nM
5,"N#CC(COc1ccc(Cl)cc1)NC12CCC(NC(=O)COc3ccc(Cl)c(F)c3)(CC1)[C@@H](O)C2 (stereo partly drawn) [Compound 699, 2-(4-chloro-3-fluorophenoxy)-N-[(2S)-4-{[2-(4-chlorophenoxy)-1-cyanoethyl]amino}-2-hydroxybicyclo[2.2.2]octan-1-yl]acetamide]",10 to 50 nM
6,"CN(CC(=O)O)C1CC2(NC(=O)COc3ccc(Cl)c(F)c3)CCC1(NC(=O)COc1ccc(Cl)c(F)c1)CC2 (centres unmarked) [Compound 700, [{1,4-bis[2-(4-chloro-3-fluorophenoxy)acetamido]bicyclo[2.2.2]octan-2-yl}(methyl)amino]acetic Acid]",250 to 500 nM
7,"O=C(COc1ccc(Cl)c(F)c1)NC12CCC(NC(=O)COc3ccc(Cl)c(F)c3)(CC1)C(NC1(CO)COC1)C2 (centres unmarked) [Compound 701, N,N′-(2-{[3-(hydroxymethyl)oxetan-3-yl]amino}bicyclo[2.2.2]octane-1,4-diyl)bis[2-(4-chloro-3-fluorophenoxy)acetamide]]",10 to 50 nM
8,"O=C(COc1ccc2c(c1)OC(F)(F)C(F)(F)O2)NC12CCC(NC(=O)COc3ccc(Cl)c(F)c3)(CC1)[C@@H](O)C2 [Compound 702, 2-(4-chloro-3-fluorophenoxy)-N-[(2S)-2-hydroxy-4-{2-[(2,2,3,3-tetrafluoro-2,3-dihydro-1,4-benzodioxin-6-yl)oxy]acetamido}bicyclo[2.2.2]octan-1-yl]acetamide]",< 10 nM
9,"O=C(COc1ccc(Cl)c(F)c1)NC12CCC(NCCCOc3ccc(Cl)c(F)c3)(CC1)[C@@H](O)C2 [Compound 703, 2-(4-chloro-3-fluorophenoxy)-N-[(3S)-4-{[3-(4-chloro-3-fluorophenoxy)propyl]amino}-3-hydroxybicyclo[2.2.2]octan-1-yl]acetamide]",< 10 nM
10,"O=C(COc1ccc(Cl)c(F)c1)NC12CC(N(CCCOc3ccc(Cl)c(F)c3)CCCOc3ccc(Cl)c(F)c3)(C1)C2 [Compound 704, N-(3-{bis[3-(4-chloro-3-fluorophenoxy)propyl]amino}bicyclo[1.1.1]pentan-1-yl)-2-(4-chloro-3-fluorophenoxy)acetamide]",250 to 500 nM
11,"O=C(COc1ccc(Cl)c(F)c1)NC12CC(NCCCOc3ccc(Cl)c(F)c3)(C1)C2 [Compound 705, 2-(4-chloro-3-fluorophenoxy)-N-(3-{[3-(4-chloro-3-fluorophenoxy)propyl]amino}bicyclo[1.1.1]pentan-1-yl)acetamide]",10 to 50 nM
12,"O=C(COc1ccc(Cl)c(F)c1)NC12CCC(NC(CCOc3ccc(Cl)cc3)C(=O)O)(CC1)C[C@@H]2O (stereo partly drawn) [Compound 706, 2-({(3S)-4-[2-(4-chloro-3-fluorophenoxy)acetamido]-3-hydroxybicyclo[2.2.2]octan-1-yl}amino)-4-(4-chlorophenoxy)butanoic acid]",250 to 500 nM
13,"O=C(COc1ccc(Cl)c(F)c1)NC12CCC(NC(=O)COc3ccc(Cl)c(F)c3)(CC1)C(NCCO)C2 (centres unmarked) [Compound 707, N,N′-{2-[(2-hydroxyethyl)amino]bicyclo[2.2.2]octane-1,4-diyl}bis[2-(4-chloro-3-fluorophenoxy)acetamide]]",< 10 nM
14,O=C(COc1cc(F)c2cn[nH]c2c1)NC12CCC(NC(=O)COc3ccc4cn[nH]c4c3)(CC1)[C@@H](O)C2 [Compound 709],< 10 nM
15,"O=C(COc1cc(F)c2cn[nH]c2c1)NC12CCC(NC(=O)COc3cc(F)c4cn[nH]c4c3)(CC1)[C@@H](O)C2 [Compound 710, N,N′-[(2S)-2-hydroxybicyclo[2.2.2]octane-1,4-diyl]bis{2-[(4-fluoro-1H-indazol-6-yl)oxy]acetamide}]",< 10 nM
16,"CN(CCO)C1CC2(NC(=O)COc3ccc(Cl)c(F)c3)CCC1(NC(=O)COc1ccc(Cl)c(F)c1)CC2 (centres unmarked) [Compound 711, N,N′-{2-[(2-hydroxyethyl)(methyl)amino]bicyclo[2.2.2]octane-1,4-diyl}bis[2-(4-chloro-3-fluorophenoxy)acetamide]]",< 10 nM

row,SMILES,EC50
1,"CNC(CC(=O)NC12CCC(NC(=O)COc3ccc(Cl)c(F)c3)(CC1)[C@@H](O)C2)c1ccc(Cl)cc1 (stereo partly drawn) [Compound 712, N-{(3S)-4-[2-(4-chloro-3-fluorophenoxy)acetamido]-3-hydroxybicyclo[2.2.2]octan-1-yl}-3-(4-chlorophenyl)-3-(methylamino)propanamide]",500 to 2000 nM
2,"O=C(CC(NC1COC1)c1ccc(Cl)cc1)NC12CCC(NC(=O)COc3ccc(Cl)c(F)c3)(CC1)[C@@H](O)C2 (stereo partly drawn) [Compound 713, N-{(3S)-4-[2-(4-chloro-3-fluorophenoxy)acetamido]-3-hydroxybicyclo[2.2.2]octan-1-yl}-3-(4-chlorophenyl)-3-[(oxetan-3-yl)amino]propanamide]",> 2000 nM
3,"O=C(COc1ccc(Cl)c(F)c1)NC12CCC(NC(=O)COc3ccc(Cl)c(F)c3)(CC1)C(NCC(F)(F)F)C2 (centres unmarked) [Compound 714, N,N′-{2-[(2,2,2-trifluoroethyl)amino]bicyclo[2.2.2]octane-1,4-diyl}bis[2-(4-chloro-3-fluorophenoxy)acetamide]]",10 to 50 nM
4,"O=C(COc1ccc(Cl)c(F)c1)NC12CCC(NC(=O)COc3ccc(Cl)c(F)c3)(CC1)C(N1CC(F)(F)C1)C2 (centres unmarked) [Compound 715, N,N′-[2-(3,3-difluoroazetidin-1-yl)bicyclo[2.2.2]octane-1,4-diyl]bis[2-(4-chloro-3-fluorophenoxy)acetamide]]",10 to 50 nM
5,"COCC1CC2(NC(=O)COc3ccc(Cl)c(F)c3)CCC1(NC(=O)COc1ccc(Cl)c(F)c1)CC2 (centres unmarked) [Compound 716, N,N′-[2-(methoxymethyl)bicyclo[2.2.2]octane-1,4-diyl]bis[2-(4-chloro-3-fluorophenoxy)acetamide]]",10 to 50 nM
6,"O=C(COc1ccc(Cl)c(F)c1)NC12C=C(C(=O)O)C(NC(=O)COc3ccc(Cl)c(F)c3)(CC1)CC2 [Compound 717, 1,4-bis[2-(4-chloro-3-fluorophenoxy)acetamido]bicyclo[2.2.2]oct-2-ene-2-carboxylic Acid]",50 to 250 nM
7,"COC(=O)C1=CC2(NC(=O)COc3ccc(Cl)c(F)c3)CCC1(NC(=O)COc1ccc(Cl)c(F)c1)CC2 [Compound 718, methyl 1,4-bis[2-(4-chloro-3-fluorophenoxy)acetamido]bicyclo[2.2.2]oct-2-ene-2-carboxylate]",< 10 nM
8,"O=C(COc1ccc(Cl)c(F)c1)NC12CCC(NC(=O)COc3ccc(Cl)c(F)c3)(CC1)C(N1CC(O)C1)C2 (centres unmarked) [Compound 719, N,N′-[2-(3-hydroxyazetidin-1-yl)bicyclo[2.2.2]octane-1,4-diyl]bis[2-(4-chloro-3-fluorophenoxy)acetamide]]",10 to 50 nM
9,O=C(COc1cc(F)c2cn[nH]c2c1)NC12CCC(NC(=O)COc3ccc(C(F)(F)F)nc3)(CC1)[C@@H](O)C2 [Compound 720],< 10 nM
10,O=C(COc1cc(F)c2cn[nH]c2c1)NC12CCC(NC(=O)COc3ccc(F)cc3)(CC1)[C@@H](O)C2 [Compound 721],< 10 nM
11,"O=C(COc1ccc(Cl)c(F)c1)NC12CCC(NC(=O)COc3ccc(Cl)c(F)c3)(CC1)C(NC1COC1)C2 (centres unmarked) [Compound 722, N,N′-{2-[(oxetan-3-yl)amino]bicyclo[2.2.2]octane-1,4-diyl}bis[2-(4-chloro-3-fluorophenoxy)acetamide]]",< 10 nM
12,"CCCC1CC2(NC(=O)COc3ccc(Cl)c(F)c3)CCC1(NC(=O)COc1ccc(Cl)c(F)c1)CC2 (centres unmarked) [Compound 723, N,N′-(2-propylbicyclo[2.2.2]octane-1,4-diyl)bis[2-(4-chloro-3-fluorophenoxy)acetamide]]",10 to 50 nM
13,O=C(COc1cc(F)c2cn[nH]c2c1)NC12CCC(NC(=O)COc3ccc(OC(F)(F)F)c(F)c3)(CC1)[C@@H](O)C2 [Compound 724],< 10 nM
14,"O=C(COc1cc(F)c2cn[nH]c2c1)NC12CCC(NC(=O)COc3ccc(Cl)cc3)(CC1)[C@@H](O)C2 [Compound 725, 2-(4-chlorophenoxy)-N-[(25)-4-{2-[(4-fluoro-1H-indazol-6-yl)oxy]acetamido}-2-hydroxybicyclo[2.2.2]octan-1-yl]acetamide]",< 10 nM
15,"O=C(COc1ccc2c(c1)OC(F)(F)O2)NC12CCC(NC(=O)COc3ccc(Cl)c(F)c3)(CC1)[C@@H](O)C2 [Compound 726, 2-(4-chloro-3-fluorophenoxy)-N-[(2S)-4-{2-[(2,2-difluoro-2H-1,3-benzodioxol-5-yl)oxy]acetamido}-2-hydroxybicyclo[2.2.2]octan-1-yl]acetamide]",< 10 nM
